What is called mortality is the share of the test organisms that died.

Here are results for 15 compounds from US10212936B2, “Molecules having pesticidal utility, and intermediates, compositions, and processes, related thereto” (priority 2014, dated 2019).

What all share (assay type): in vivo
For data set [1], the system named is Beet Armyworm (Spodoptera exigua, LAPHEG). Briefly: Bioassay on Beet Armyworm (BAW), 128-well diet tray assay. The note with it: 168 h, 50 μg/cm^2 on artificial diet, second instar larvae, five to seven days, 25° C., read-out: BAW % Control (or Mortality) rating. How it is done:
(§1) Example A: Bioassays on Beet Armyworm (Spodoptera exigua, LAPHEG) (“BAW”), Corn Earworm (Helicoverpa zea, HELIZE) (“CEW”), and Cabbage Looper (Trichoplusia ni, TRIPNI) (“CL”)
(§2) Certain molecules disclosed in this document were tested against BAW, CEW, and CL using procedures described in the following examples. In the reporting of the results, the “BAW, CEW, & CL Rating Table” was used (See Table Section).
Bioassays on BAW were conducted using a 128-well diet tray assay. one to five second instar BAW larvae were placed in each well (3 mL) of the diet tray that had been previously filled with 1 mL of artificial diet to which 50 μg/cm^2 of the test molecule (dissolved in 50 μL of 90:10 acetone-water mixture) had been applied (to each of eight wells) and then allowed to dry. Trays were covered with a clear self-adhesive cover and held at 25° C., 14:10 light-dark for five to seven days. Percent mortality was recorded for the larvae in each well; activity in the eight wells was then averaged. The results are indicated in the table entitled “Table ABC: Biological Results” (See Table Section).

In data set [2] the test system is Cabbage Looper (Trichoplusia ni, TRIPNI). Put plainly: Bioassay on Cabbage Looper (CL), 128-well diet tray assay. The following applies: 168 h, 50 μg/cm^2 on artificial diet, second instar larvae, five to seven days, 25° C., read-out: CL % Control (or Mortality) rating. How it is done: as §1, §2
Bioassays on CL were conducted using a 128-well diet tray assay. one to five second instar CL larvae were placed in each well (3 mL) of the diet tray that had been previously filled with 1 mL of artificial diet to which 50 μg/cm^2 of the test molecule (dissolved in 50 μL of 90:10 acetone-water mixture) had been applied (to each of eight wells) and then allowed to dry. Trays were covered with a clear self-adhesive cover and held at 25° C., 14:10 light-dark for five to seven days. Percent mortality was recorded for the larvae in each well; activity in the eight wells was then averaged. The results are indicated in the table entitled “Table ABC: Biological Results” (See Table Section).

The subject of data set [3] is Corn Earworm (Helicoverpa zea, HELIZE). Briefly: Bioassay on Corn Earworm (CEW), 128-well diet tray assay. The note with it: 168 h, 50 μg/cm^2 on artificial diet, second instar larvae, five to seven days, 25° C., read-out: CEW % Control (or Mortality) rating. How it is done:
as §1, §2
Bioassays on CEW were conducted using a 128-well diet tray assay. one to five second instar CEW larvae were placed in each well (3 mL) of the diet tray that had been previously filled with 1 mL of artificial diet to which 50 μg/cm^2 of the test molecule (dissolved in 50 μL of 90:10 acetone-water mixture) had been applied (to each of eight wells) and then allowed to dry. Trays were covered with a clear self-adhesive cover, and held at 25° C., 14:10 light-dark for five to seven days. Percent mortality was recorded for the larvae in each well; activity in the eight wells was then averaged. The results are indicated in the table entitled “Table ABC: Biological Results” (See Table Section).

For data set [4], the system named is Yellow Fever Mosquito (Aedes aegypti, AEDSAE). Briefly: Bioassay on Yellow Fever Mosquito (YFM) larvae, 96-well plate. The note with it: about 1 day-old larvae, 4000 ppm DMSO master plate diluted, graded after 3 days. The method, then:
Example C: Bioassays on Yellow Fever Mosquito (Aedes aegypti, AEDSAE) (“YFM”)
Certain molecules disclosed in this document were tested against YFM using procedures described in the following paragraph. In the reporting of the results, the “YFM Rating Table” was used (See Table Section).
Master plates containing 400 μg of a molecule dissolved in 100 μL of dimethyl sulfoxide (DMSO) (equivalent to a 4000 ppm solution) are used. A master plate of assembled molecules contains 15 μL per well. To this plate, 135 μL of a 90:10 water:acetone mixture is added to each well. A robot (Biomek® NXP Laboratory Automation Workstation) is programmed to dispense 15 μL aspirations from the master plate into an empty 96-well shallow plate (“daughter” plate). There are 6 reps (“daughter” plates) created per master. The created daughter plates are then immediately infested with YFM larvae.
The day before plates are to be treated, mosquito eggs are placed in Millipore water containing liver powder to begin hatching (4 g. into 400 mL). After the daughter plates are created using the robot, they are infested with 220 μL of the liver powder/larval mosquito mixture (about 1 day-old larvae). After plates are infested with mosquito larvae, a non-evaporative lid is used to cover the plate to reduce drying. Plates are held at room temperature for 3 days prior to grading. After 3 days, each well is observed and scored based on mortality. The results are indicated in the table entitled “Table ABC: Biological Results” (See Table Section).

As for `CC(C)c1ccccc1-n1ccnc1NC(=O)Nc1ccc(-c2ncn(-c3ccc(OC(F)(F)C(F)(F)F)cc3)n2)cc1` [F34, 1-(1-(2-isopropylphenyl)-1H-imidazol-2-yl)-3-(4-(1-(4-(perfluoroethoxy)phenyl)-1H-1,2,4-triazol-3-yl)phenyl)urea], the mortality at 50 µg/cm2 in data set [1], in data set [2] and in data set [3] was 50 to 100% throughout. Besides, the “YFM % Control (or Mortality) rating” value in data set [4] is reported as “D (No activity noticed in this bioassay)”.
Regarding `O=C(Nc1ccc(-c2ncn(-c3ccc(OC(F)(F)F)cc3)n2)cc1)Nc1nonc1-c1ccccc1` [F37, 1-(4-Phenyl-1,2,5-oxadiazol-3-yl)-3-(4-(1-(4-(trifluoromethoxy)phenyl)-1H-1,2,4-triazol-3-yl)phenyl)urea], the mortality at 50 µg/cm2 in data set [1], in data set [2] and in data set [3] was 50 to 100% each time. The “YFM % Control (or Mortality) rating” value in data set [4] is listed as “A (80-100)”.
As for `CCc1ccccc1-c1nonc1NC(=O)Nc1ccc(-c2ncn(-c3ccc(OC(F)(F)F)cc3)n2)cc1` [F44, 1-(4-(2-Ethylphenyl)-1,2,5-oxadiazol-3-yl)-3-(4-(1-(4-(trifluoromethoxy)phenyl)-1H-1,2,4-triazol-3-yl)phenyl)urea], the mortality at 50 µg/cm2 in data set [1], in data set [2] and in data set [3] was 50 to 100% in each case. Further, the “YFM % Control (or Mortality) rating” value in data set [4] is reported as “D (No activity noticed in this bioassay)”.
On to `FC(F)(F)Oc1ccc(-n2cnc(-c3ccc(CCNC(=S)Nc4ccnn4-c4ccccc4)cc3)n2)cc1` [F65, 1-(1-phenyl-1H-pyrazol-5-yl)-3-(4-(1-(4-(trifluoromethoxy)phenyl)-1H-1,2,4-triazol-3-yl)phenethyl)thiourea], for which the mortality at 50 µg/cm2 in data set [1], in data set [2] and in data set [3] was 50 to 100% in each case. For the same compound, the “YFM % Control (or Mortality) rating” value in data set [4] is recorded as “A (80-100)”.
For the compound `O=C(Nc1ccc(-c2ncn(-c3ccc(OC(F)(F)C(F)(F)F)cc3)n2)cc1)Nc1nccn1-c1cccc(Cl)c1` [F35, 1-(1-(3-Chlorophenyl)-1H-imidazol-2-yl)-3-(4-(1-(4-(perfluoroethoxy)phenyl)-1H-1,2,4-triazol-3-yl)phenyl)urea], the mortality at 50 µg/cm2 in data set [1], in data set [2] and in data set [3] was 50 to 100% each time. In data set [4], the “YFM % Control (or Mortality) rating” value is “D (No activity noticed in this bioassay)”.
Consider `Cc1ccc(-c2nonc2NC(=O)Nc2ccc(-c3ncn(-c4ccc(OC(F)(F)F)cc4)n3)cc2)c(C)c1` [F36, 1-(4-(2,4-Dimethylphenyl)-1,2,5-oxadiazol-3-yl)-3-(4-(1-(4-(trifluoromethoxy)phenyl)-1H-1,2,4-triazol-3-yl)phenyl)urea], for which the mortality at 50 µg/cm2 in data set [1], in data set [2] and in data set [3] was 50 to 100% each time. Besides, the “YFM % Control (or Mortality) rating” value in data set [4] is given as “A (80-100)”.
Consider `Cc1cc(C)c(-c2nonc2NC(=O)Nc2ccc(-c3ncn(-c4ccc(OC(F)(F)F)cc4)n3)cc2)c(C)c1` [F40, 1-(4-Mesityl-1,2,5-oxadiazol-3-yl)-3-(4-(1-(4-(trifluoromethoxy)phenyl)-1H-1,2,4-triazol-3-yl)phenyl)urea], for which the mortality at 50 µg/cm2 in data set [1], in data set [2] and in data set [3] was 50 to 100% throughout. For the same compound, the “YFM % Control (or Mortality) rating” value in data set [4] is “B (More than 0-Less than 80)”.
As to `Cc1cc(Cl)ccc1-c1nonc1NC(=O)Nc1ccc(-c2ncn(-c3ccc(OC(F)(F)F)cc3)n2)cc1` [F43, 1-(4-(4-Chloro-2-methylphenyl)-1,2,5-oxadiazol-3-yl)-3-(4-(1-(4-(trifluoromethoxy)phenyl)-1H-1,2,4-triazol-3-yl)phenyl)urea], the mortality at 50 µg/cm2 in data set [1], in data set [2] and in data set [3] was 50 to 100% throughout. Also, the “YFM % Control (or Mortality) rating” value in data set [4] is recorded as “A (80-100)”.
Consider `COc1cccc(-c2nonc2NC(=O)Nc2ccc(-c3ncn(-c4ccc(OC(F)(F)F)cc4)n3)cc2)c1` [F41, 1-(4-(3-Methoxyphenyl)-1,2,5-oxadiazol-3-yl)-3-(4-(1-(4-(trifluoromethoxy)phenyl)-1H-1,2,4-triazol-3-yl)phenyl)urea], for which the mortality at 50 µg/cm2 in data set [1], in data set [2] and in data set [3] was 50 to 100% each time. Moreover, in data set [4], the “YFM % Control (or Mortality) rating” value is listed as “B (More than 0-Less than 80)”.
As to `O=C(Nc1ccc(-c2ncn(-c3ccc(OC(F)(F)F)cc3)n2)cc1)Nc1nonc1-c1ccccc1OC(F)(F)F` [F45, 1-(4-(2-(Trifluoromethoxy)phenyl)-1,2,5-oxadiazol-3-yl)-3-(4-(1-(4-(trifluoromethoxy)phenyl)-1H-1,2,4-triazol-3-yl)phenyl)urea], the mortality at 50 µg/cm2 in data set [1], in data set [2] and in data set [3] was 50 to 100% in each case. Moreover, in data set [4], the “YFM % Control (or Mortality) rating” value is listed as “A (80-100)”.
For `O=C(Nc1ccc(-c2ncn(-c3ccc(OC(F)(F)F)cc3)n2)cc1)Nc1nonc1-c1c(Cl)cccc1Cl` [F42, 1-(4-(2,6-Dichlorophenyl)-1,2,5-oxadiazol-3-yl)-3-(4-(1-(4-(trifluoromethoxy)phenyl)-1H-1,2,4-triazol-3-yl)phenyl)urea], the mortality at 50 µg/cm2 in data set [1], in data set [2] and in data set [3] was 50 to 100% in each case. In addition, the “YFM % Control (or Mortality) rating” value in data set [4] was “D (No activity noticed in this bioassay)”.
On to `COc1ccccc1-c1nonc1NC(=O)Nc1ccc(-c2ncn(-c3ccc(OC(F)(F)F)cc3)n2)cc1` [F38, 1-(4-(2-Methoxyphenyl)-1,2,5-oxadiazol-3-yl)-3-(4-(1-(4-(trifluoromethoxy)phenyl)-1H-1,2,4-triazol-3-yl)phenyl)urea], for which the mortality at 50 µg/cm2 in data set [1], in data set [2] and in data set [3] was 50 to 100% each time. The “YFM % Control (or Mortality) rating” value in data set [4] is recorded as “A (80-100)”.
Regarding `CC(C)c1ccccc1-n1ccnc1NC(=O)Nc1ccc(-c2ncn(-c3ccc(OC(F)(F)F)cc3)n2)cc1` [F22, 1-(1-(2-Isopropylphenyl)-1H-imidazol-2-yl)-3-(4-(1-(4-(trifluoromethoxy)phenyl)-1H-1,2,4-triazol-3-yl)phenyl)urea], the mortality at 50 µg/cm2 in data set [1], in data set [2] and in data set [3] was 50 to 100% each time.
As to `Cc1ccc(-n2ccnc2NC(=O)Nc2ccc(-c3ncn(-c4ccc(OC(F)(F)F)cc4)n3)cc2)cc1` [F29, 1-(1-(p-Tolyl)-1H-imidazol-2-yl)-3-(4-(1-(4-(trifluoromethoxy)phenyl)-1H-1,2,4-triazol-3-yl)phenyl)urea], the mortality at 50 µg/cm2 in data set [1], in data set [2] and in data set [3] was 50 to 100% in each case.
In the case of `O=C(NCCc1ccc(-c2ncn(-c3ccc(OC(F)(F)F)cc3)n2)cc1)Nc1ncc(-c2ccccc2)o1` [F52, 1-(5-phenyloxazol-2-yl)-3-(4-(1-(4-(trifluoromethoxy)phenyl)-1H-1,2,4-triazol-3-yl)phenethyl)urea], the mortality at 50 µg/cm2 was 50 to 100% in data set [1], 50 to 100% in data set [2] and 0% in data set [3].
